This test has as its system BDF1 mice, B16 melanoma ip, median survival T/C. Kind of test: NCI In Vivo Anticancer Drug Screen. Data for tumor model B16 Melanoma (intraperitoneal) in B6D2F1 (BDF1) mice. The conditions noted are these: endpoint: median survival time, higher = longer survival. The essentials:
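Mice with transplantable tumors; drug vs vehicle groups; endpoint survival or tumor size; value = T/C.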

Setting [1] is: dose: 6.25 mg/kg/injection, schedule: Q01DX009 (ip), vehicle: saline.
Where [2] appears, read: dose: 25.0 mg/kg/injection, schedule: Q01DX009 (ip), vehicle: saline with Tween-80.
Where [3] appears, read: dose: 50.0 mg/kg/injection, schedule: Q01DX009 (ip), vehicle: saline with Tween-80.
Where [4] appears, read: dose: 100.0 mg/kg/injection, schedule: Q01DX009 (ip), vehicle: saline with Tween-80.
Where [5] appears, read: dose: 50.0 mg/kg/injection, schedule: Q04DX003 (ip), vehicle: saline.
Setting [6] is: dose: 25.0 mg/kg/injection, schedule: Q04DX003 (ip), vehicle: saline.
Where [7] appears, read: dose: 100.0 mg/kg/injection, schedule: Q04DX003 (ip), vehicle: saline.
Setting [8] is: dose: 100.0 mg/kg/injection, schedule: Q01DX009 (ip), vehicle: Klucel (hydroxypropylcellulose) (HPC).
[9] abbreviates: dose: 50.0 mg/kg/injection, schedule: Q01DX009 (ip), vehicle: Klucel (hydroxypropylcellulose) (HPC).
Where [10] appears, read: dose: 200.0 mg/kg/injection, schedule: Q01DX009 (ip), vehicle: Klucel (hydroxypropylcellulose) (HPC).
Setting [11] is: dose: 100.0 mg/kg/injection, schedule: Q04DX003 (ip), vehicle: Klucel (hydroxypropylcellulose) (HPC).
[12] abbreviates: dose: 6.25 mg/kg/injection, schedule: Q01DX009 (ip), vehicle: saline with Tween-80.

Structures are written as SMILES. “And” between values parts separate entries of the source, which are not always exact repeats. Equal entries are not always repeated. Toxic doses and inconclusive results are not listed.

Take `Cc1ccc(C)n1-c1ccccc1`: the T/C was 101 % of control (dose: 100.0 mg/kg/injection, schedule: Q01DX009 (ip), vehicle: saline + alcohol) and 99 % of control (dose: 200.0 mg/kg/injection, schedule: Q01DX009 (ip), vehicle: saline + alcohol).

Consider `Cc1cc2c3ccccc3ccc2[n+]2ccccc12`, for which the T/C under setting [1] was 95 % of control and the T/C (dose: 12.5 mg/kg/injection, schedule: Q01DX009 (ip), vehicle: saline) is 93 % of control.

`NCc1c(Cl)c(Cl)c(CN)c(Cl)c1Cl`: the T/C reads like this: under setting [2], 100 % of control; under setting [3], 102 % of control; under setting [4], 100 % of control.

With `CCCCNc1cc(Nc2ccc(Br)cc2)nc(N)n1`, the T/C is, setting by setting: under setting [3], 95 % of control; under setting [4], 91 % of control.

As to `CC1(C)N=C(N)N=C(N)N1c1ccc(CNC(=O)Nc2ccc(S(=O)(=O)F)cc2)cc1`, under setting [5], the T/C is 112 % of control.

With `CCCCCCCCCCNCCC(=O)O`, the T/C was 98 % of control (dose: 0.58 mg/kg/injection, schedule: Q01DX009 (ip), vehicle: saline); 96 % of control (dose: 1.1 mg/kg/injection, schedule: Q01DX009 (ip), vehicle: saline); 95 % of control (dose: 2.3 mg/kg/injection, schedule: Q01DX009 (ip), vehicle: saline); 102 % of control (dose: 37.5 mg/kg/injection, schedule: Q01DX009 (ip), vehicle: saline).

Take `CCOC(=O)C(C)(Br)C(=O)OCC`: the T/C is 110 % of control under setting [2]; 115 % of control under setting [6]; 102 % of control under setting [3]; 118 % of control under setting [5]; 95 % of control under setting [4]; 118 % of control under setting [7].

Turning to `O=C(O)c1cc(-c2ccc(Cl)cc2)nc2c(Cl)cccc12`, the T/C under setting [8] is 100 % of control.

On to `Cc1ccc(NC(=O)Nc2ccccc2Cl)cc1Cl`, for which the T/C reads like this: under setting [9], 100 % of control; under setting [8], 104 % of control.

Regarding `NCCN1CCc2ccccc2C1`, the T/C runs as follows: (dose: 6.25 mg/kg/injection, schedule: Q04DX003 (ip), vehicle: saline) 113 % of control; (dose: 12.5 mg/kg/injection, schedule: Q04DX003 (ip), vehicle: saline) 110 % of control; (dose: 16.5 mg/kg/injection, schedule: Q04DX003 (ip), vehicle: saline) 112 % of control; under setting [6], 112 % of control and 115 % of control; (dose: 37.5 mg/kg/injection, schedule: Q04DX003 (ip), vehicle: saline) 110 % of control.

As to `CC1(c2ccccc2)CCc2ccccc21` (centres undefined), the T/C was 103 % of control under setting [2], 89 % of control under setting [3] and 90 % of control under setting [4].

With `CCOC(=O)c1[nH]cnc1/N=N/N(C)CCO`, the T/C is, setting by setting: (dose: 12.5 mg/kg/injection, schedule: Q01DX009 (ip), vehicle: carboxymethylcellulose (CMC)) 104 % of control; (dose: 25.0 mg/kg/injection, schedule: Q01DX009 (ip), vehicle: carboxymethylcellulose (CMC)) 118 % of control; (dose: 50.0 mg/kg/injection, schedule: Q01DX009 (ip), vehicle: carboxymethylcellulose (CMC)) 95 % of control; (dose: 100.0 mg/kg/injection, schedule: Q01DX009 (ip), vehicle: carboxymethylcellulose (CMC)) 100 % of control; (dose: 200.0 mg/kg/injection, schedule: Q01DX009 (ip), vehicle: carboxymethylcellulose (CMC)) 113 % of control.

Regarding `CC(C)(C)OC(=O)C(CSSCC(NC(=O)OCc1ccccc1)C(=O)OC(C)(C)C)NC(=O)OCc1ccccc1` (centres undefined), the T/C is 94 % of control (dose: 75.0 mg/kg/injection, schedule: Q01DX009 (ip), vehicle: Klucel (hydroxypropylcellulose) (HPC)); 100 % of control (dose: 150.0 mg/kg/injection, schedule: Q01DX009 (ip), vehicle: Klucel (hydroxypropylcellulose) (HPC)); 88 % of control (dose: 300.0 mg/kg/injection, schedule: Q01DX009 (ip), vehicle: Klucel (hydroxypropylcellulose) (HPC)).

Turning to `CC(C)(C)OC(=O)C(CC(=O)O)NC(=O)OCc1ccccc1` (centres undefined) (tested in a mixture with another compound), the T/C is 107 % of control (dose: 15.0 mg/kg/injection, schedule: Q01DX009 (ip), vehicle: saline); 102 % of control (dose: 30.0 mg/kg/injection, schedule: Q01DX009 (ip), vehicle: saline); 108 % of control (dose: 60.0 mg/kg/injection, schedule: Q01DX009 (ip), vehicle: saline).

For `Cc1ccc(NC(=O)c2ccc(Cl)cc2)c(Br)c1`, the T/C was 105 % of control (dose: 100.0 mg/kg/injection, schedule: Q04DX003 (ip), vehicle: saline with Tween-80); 97 % of control (dose: 200.0 mg/kg/injection, schedule: Q04DX003 (ip), vehicle: saline with Tween-80); 88 % of control (dose: 400.0 mg/kg/injection, schedule: Q04DX003 (ip), vehicle: saline with Tween-80).

As to `c1nnc(NCNc2nncs2)s1`, the T/C under setting [1] was 108 % of control; the T/C (dose: 25.0 mg/kg/injection, schedule: Q01DX009 (ip), vehicle: saline) is 122 % of control; the T/C under setting [5] was 109 % of control; the T/C under setting [7] is 119 % of control.

On to `CCCCNC(=O)OCC(C)(CCC)COC(N)=O` (centres undefined), for which the T/C reads like this: under setting [9], 92 % of control; under setting [8], 92 % of control; under setting [10], 94 % of control.

Regarding `CC(=O)N/C(=C/c1ccccc1)C(=O)O`, the T/C by setting is: under setting [8], 94 % of control; under setting [11], 93 % of control; under setting [10], 108 % of control; (dose: 200.0 mg/kg/injection, schedule: Q04DX003 (ip), vehicle: Klucel (hydroxypropylcellulose) (HPC)) 86 % of control; (dose: 400.0 mg/kg/injection, schedule: Q01DX009 (ip), vehicle: Klucel (hydroxypropylcellulose) (HPC)) 97 % of control; (dose: 400.0 mg/kg/injection, schedule: Q04DX003 (ip), vehicle: Klucel (hydroxypropylcellulose) (HPC)) 90 % of control.

Take `CNC(=O)n1c(N)nc(-c2ccccc2)c1-c1ccccc1`: the T/C was 98 % of control under setting [12]; 98 % of control (dose: 12.5 mg/kg/injection, schedule: Q01DX009 (ip), vehicle: saline with Tween-80); 106 % of control under setting [2]; 107 % of control under setting [3].

For `CCC[CH2][Sn](=[S])[CH2]CCC`, the T/C runs as follows: (dose: 0.78 mg/kg/injection, schedule: Q01DX009 (ip), vehicle: saline) 98 % of control; (dose: 1.56 mg/kg/injection, schedule: Q01DX009 (ip), vehicle: saline) 102 % of control; (dose: 6.25 mg/kg/injection, schedule: Q01DX009 (ip), vehicle: other) 97 % of control; under setting [12], 109 % of control; under setting [1], 107 % of control; (dose: 6.25 mg/kg/injection, schedule: Q04DX003 (ip), vehicle: other) 105 % of control.

Take `CCc1cc(C)cc(OC(=O)Nc2ccccc2)c1`: the T/C is, setting by setting: under setting [4], 97 % of control; (dose: 200.0 mg/kg/injection, schedule: Q01DX009 (ip), vehicle: saline with Tween-80) 93 % of control; (dose: 400.0 mg/kg/injection, schedule: Q01DX009 (ip), vehicle: saline with Tween-80) 100 % of control.

As for `COc1cc2c(c(OC)c1OC)-c1ccc(OC)c(=O)cc1[C@@H](NC(=O)CF)CC2`, the T/C (dose: 0.04 mg/kg/injection, schedule: Q01DX009 (ip), vehicle: saline with Tween-80) was 116 % of control and the T/C (dose: 0.09 mg/kg/injection, schedule: Q01DX009 (ip), vehicle: saline with Tween-80) is 118 % of control.

In the case of `CCCCCCCC(=O)Nc1ccc(C)cc1`, the T/C is, setting by setting: (dose: 50.0 mg/kg/injection, schedule: Q04DX003 (ip), vehicle: Klucel (hydroxypropylcellulose) (HPC)) 89 % of control; under setting [11], 91 % of control.

Consider `COC(C(=O)C(O)C(C)O)C1Cc2cc3cc(OC4CC(OC(C)=O)C(OC5CC(O)C(OC)C(C)O5)C(C)O4)cc(O)c3c(O)c2C(=O)C1OC1CC(OC2CC(OC3CC(C)(O)C(OC(=O)C(C)C)C(C)O3)C(O)C(C)O2)C(O)C(C)O1` (centres undefined), for which the T/C (dose: 0.25 mg/kg/injection, schedule: Q01DX009 (ip), vehicle: saline with Tween-80) was 158 % of control; the T/C (dose: 0.5 mg/kg/injection, schedule: Q01DX009 (ip), vehicle: saline) was 154 % of control and 170 % of control; the T/C (dose: 1.0 mg/kg/injection, schedule: Q01DX009 (ip), vehicle: saline) is 173 % of control and 183 % of control; the T/C (dose: 2.0 mg/kg/injection, schedule: Q01DX009 (ip), vehicle: saline) was 173 % of control and 178 % of control.

The values are drawn from PubChem BioAssay AID192 (DTP/NCI, 2004).
